Assay results as given in ChEMBL document CHEMBL1201862, “PubChem BioAssay data set” (2004).
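All cell lines were grown in 96-well plates and treated with compound for 48 hours. Here, GI50 denotes the concentration required for 50% inhibition of growth.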 Active and inactive are the calls of the source. Rule as the data show it: active = GI50 up to about 1.1 µM and inactive = higher.

Legend:
Experiment in all cases: inhibition of tumour cell growth, NCI panel, 48 h
[1] = test system: ACHN
[2] = test system: EKVX
[3] = test system: HCT-116
[4] = test system: HCT-15
[5] = test system: MCF7
[6] = test system: MDA-MB-231
[7] = test system: MOLT-4
[8] = test system: NCI-H23
[9] = test system: PC-3
[10] = test system: RPMI-8226
[11] = test system: SF-268
[12] = test system: SF-539
[13] = test system: SK-MEL-28
[14] = test system: SK-MEL-2
[15] = test system: SK-MEL-5
[16] = test system: SN12C
[17] = test system: SW-620
[18] = test system: T47D
[19] = test system: UACC-62
[20] = test system: COLO 205

| Compound | GI50 [1] | GI50 [2] | GI50 [3] | GI50 [4] [µM] | GI50 [5] | GI50 [6] | GI50 [7] | GI50 [8] | GI50 [9] | GI50 [10] | GI50 [11] | GI50 [12] | GI50 [13] | GI50 [14] | GI50 [15] | GI50 [16] | GI50 [17] | GI50 [18] | GI50 [19] | GI50 [20] |
| --- | --- | --- | --- | --- | --- | --- | --- | --- | --- | --- | --- | --- | --- | --- | --- | --- | --- | --- | --- | --- |
| N#Cc1c(N)nc(S)c(C#N)c1-c1ccccc1 | > 100 µM (inactive) | > 100 µM (inactive) | > 100 µM (inactive) | > 100 | > 100 µM (inactive) | > 100 µM (inactive) | > 100 µM (inactive) | > 100 µM (inactive) | > 100 µM (inactive) | > 100 µM (inactive) | > 100 µM (inactive) | > 100 µM (inactive) | > 100 µM (inactive) | 82.4 µM (inactive) | > 100 µM (inactive) | > 100 µM (inactive) | > 100 µM (inactive) | > 100 µM (inactive) | > 100 µM (inactive) | – |
| CN(C)c1ccc(/C=c2\c3cc([N+](=O)[O-])ccc3n3c2cc(-c2ccccc2)[n+]3C)cc1 | 5.51 µM (inactive) | 0.998 µM (active) | 0.885 µM (active) | 15.5 | 0.791 µM (active) | 1.73 µM (inactive) | 1.75 µM (inactive) | 2.75 µM (inactive) | 1.91 µM (inactive) | 0.264 µM (active) | 0.923 µM (active) | 0.822 µM (active) | 0.948 µM (active) | 0.521 µM (active) | 0.318 µM (active) | 0.454 µM (active) | 0.836 µM (active) | 0.458 µM (active) | 0.678 µM (active) | 0.297 µM (active) |
| C/C(=N\NC(=S)NCCNC(=S)N/N=C(\C)c1ccccn1)c1ccccn1 | 1.26 µM (inactive) | 4.83 µM (inactive) | 2.75 µM (inactive) | 1.84 | 4.39 µM (inactive) | > 20.9 µM (inactive) | 2.15 µM (inactive) | 4.41 µM (inactive) | 3.07 µM (inactive) | 1.7 µM (inactive) | 1.9 µM (inactive) | 2.36 µM (inactive) | 4.75 µM (inactive) | 1.82 µM (inactive) | 1.74 µM (inactive) | 1.94 µM (inactive) | 5.04 µM (inactive) | 4.43 µM (inactive) | 2.62 µM (inactive) | 2.09 µM (inactive) |
| C/C1=C\CC[C@@]2(C)O[C@@H]2C[C@@H]2[C@H](C/C(C)=C/CC1)OC(=O)C21CC1 | 50.6 µM (inactive) | > 100 µM (inactive) | 35 µM (inactive) | 27.7 | 53.5 µM (inactive) | > 100 µM (inactive) | 21.7 µM (inactive) | – | > 100 µM (inactive) | 12.1 µM (inactive) | > 100 µM (inactive) | > 100 µM (inactive) | > 100 µM (inactive) | > 100 µM (inactive) | 93.5 µM (inactive) | 60.3 µM (inactive) | 60.7 µM (inactive) | > 100 µM (inactive) | 90.8 µM (inactive) | > 100 µM (inactive) |
| CCOC(=O)/C(=N\Nc1ccc(-n2c(C)nc3ccccc3c2=O)cc1)C(C)=O | 32.4 µM (inactive) | 25.6 µM (inactive) | 36 µM (inactive) | 37.7 | 37.7 µM (inactive) | > 100 µM (inactive) | 13.5 µM (inactive) | 50.5 µM (inactive) | 34.8 µM (inactive) | 11.6 µM (inactive) | 25.8 µM (inactive) | 51.8 µM (inactive) | 20.3 µM (inactive) | 54.5 µM (inactive) | 2.25 µM (inactive) | > 100 µM (inactive) | 61.5 µM (inactive) | 21 µM (inactive) | 29.8 µM (inactive) | 39.9 µM (inactive) |
| Brc1ccccc1/C=N\C12CC3CC(CC(C3)C1)C2 | > 68.2 µM (inactive) | > 100 µM (inactive) | 1.85 µM (inactive) | 1.99 | 7.24 µM (inactive) | > 100 µM (inactive) | 4.75 µM (inactive) | > 65 µM (inactive) | 43.2 µM (inactive) | 3.31 µM (inactive) | 99.1 µM (inactive) | 15.5 µM (inactive) | > 100 µM (inactive) | > 81.3 µM (inactive) | 51.6 µM (inactive) | > 63.1 µM (inactive) | 3.9 µM (inactive) | > 100 µM (inactive) | 12 µM (inactive) | > 100 µM (inactive) |
| CC(C)=CC(=O)c1[nH]c2ccccc2c1CC(=O)NCCc1cn(C(c2ccccc2)(c2ccccc2)c2ccccc2)cn1 | 3.54 µM (inactive) | 3.48 µM (inactive) | 2.77 µM (inactive) | 3.89 | 2.99 µM (inactive) | 2.16 µM (inactive) | 2.26 µM (inactive) | 4.69 µM (inactive) | 2.46 µM (inactive) | 1.98 µM (inactive) | 16.8 µM (inactive) | 2.69 µM (inactive) | 3.4 µM (inactive) | 1.81 µM (inactive) | 2.08 µM (inactive) | 2.81 µM (inactive) | 3.74 µM (inactive) | 3.77 µM (inactive) | 1.97 µM (inactive) | 1.81 µM (inactive) |
| O=C1/C(=C\Oc2ccc(F)cc2)N2CCC1CC2 | 76.2 µM (inactive) | 55.5 µM (inactive) | 34.8 µM (inactive) | 70.6 | 49 µM (inactive) | 80.5 µM (inactive) | 34.1 µM (inactive) | 54.5 µM (inactive) | > 100 µM (inactive) | 52.1 µM (inactive) | 89.5 µM (inactive) | > 100 µM (inactive) | 87.1 µM (inactive) | 61.2 µM (inactive) | 63.5 µM (inactive) | 94.6 µM (inactive) | – | 54.6 µM (inactive) | 25.9 µM (inactive) | > 100 µM (inactive) |
| N#Cc1ccccc1OCCOc1ccccc1C#N | > 100 µM (inactive) | > 100 µM (inactive) | > 100 µM (inactive) | > 100 | > 100 µM (inactive) | > 100 µM (inactive) | > 100 µM (inactive) | > 100 µM (inactive) | > 100 µM (inactive) | > 100 µM (inactive) | > 100 µM (inactive) | 26.1 µM (inactive) | > 100 µM (inactive) | > 100 µM (inactive) | > 100 µM (inactive) | > 100 µM (inactive) | > 100 µM (inactive) | > 100 µM (inactive) | > 100 µM (inactive) | > 100 µM (inactive) |
| COc1cc(C(=O)N(C(=S)OCc2ccccn2)c2ccccc2)cc(OC)c1OC | 42.3 µM (inactive) | 12.9 µM (inactive) | 44.1 µM (inactive) | 39.6 | 33.7 µM (inactive) | 78.5 µM (inactive) | 25.6 µM (inactive) | 86.1 µM (inactive) | 74.3 µM (inactive) | 26.8 µM (inactive) | > 100 µM (inactive) | 26.5 µM (inactive) | 92.3 µM (inactive) | > 100 µM (inactive) | 35.2 µM (inactive) | 43 µM (inactive) | 59.7 µM (inactive) | 34.9 µM (inactive) | 56.4 µM (inactive) | 53.5 µM (inactive) |
| Nc1nc(=O)n(C2CC(O)C(CO)O2)c2nc(-c3ccc(-c4ccccc4)cc3)cnc12 (centres undefined) | > 100 µM (inactive) | 96.4 µM (inactive) | > 100 µM (inactive) | > 100 | 15.5 µM (inactive) | 21.9 µM (inactive) | 25.9 µM (inactive) | 99.3 µM (inactive) | 37.6 µM (inactive) | > 100 µM (inactive) | 30.7 µM (inactive) | 30 µM (inactive) | – | 44.6 µM (inactive) | 15.9 µM (inactive) | 62.7 µM (inactive) | > 100 µM (inactive) | 18.6 µM (inactive) | 25.3 µM (inactive) | > 100 µM (inactive) |
| CCN(C(=S)N[C@H](C(=O)N[C@@H](C)C(=O)OC)C(C)C)c1ccccc1 | 64.4 µM (inactive) | > 100 µM (inactive) | 70.8 µM (inactive) | 63.1 | 87.3 µM (inactive) | > 100 µM (inactive) | 25.4 µM (inactive) | > 100 µM (inactive) | 64.9 µM (inactive) | 63.2 µM (inactive) | – | 28 µM (inactive) | > 100 µM (inactive) | > 100 µM (inactive) | 71.4 µM (inactive) | 66.8 µM (inactive) | 59.7 µM (inactive) | > 100 µM (inactive) | 76.7 µM (inactive) | 59.6 µM (inactive) |
| CCCCN1C(=O)N(c2ccc(OCC)cc2)C2N(CCCC)C1C(C)(C)C2(C)C (centres undefined) | 27.7 µM (inactive) | 19.7 µM (inactive) | 31.6 µM (inactive) | 26.6 | 15.3 µM (inactive) | 41.5 µM (inactive) | – | 24.8 µM (inactive) | 23.2 µM (inactive) | 14.9 µM (inactive) | 21.9 µM (inactive) | 16.7 µM (inactive) | 32.1 µM (inactive) | 31.6 µM (inactive) | 15.7 µM (inactive) | 30.3 µM (inactive) | 32.6 µM (inactive) | 22.4 µM (inactive) | 16.9 µM (inactive) | 22.5 µM (inactive) |
| CC(C)[C@H]1NC(=O)[C@H]2N=C(O[C@@H]2C)[C@@H]2CCCN2C(=O)[C@H](Cc2ccccc2)NC(=O)[C@@H]2CSC(=N2)[C@@H](Cc2ccccc2)NC(=O)[C@@H]2CSC1=N2 | > 100 µM (inactive) | > 100 µM (inactive) | 90.8 µM (inactive) | > 100 | > 100 µM (inactive) | > 100 µM (inactive) | 75.7 µM (inactive) | > 100 µM (inactive) | 37.5 µM (inactive) | 20 µM (inactive) | > 100 µM (inactive) | > 100 µM (inactive) | 75.3 µM (inactive) | 85.9 µM (inactive) | 95.9 µM (inactive) | > 100 µM (inactive) | 86.5 µM (inactive) | > 100 µM (inactive) | 50 µM (inactive) | > 100 µM (inactive) |
